{"source": "patent US11547301B2", "about": "“Methods for collecting and testing bacteria containing samples from within the gastrointestinal tract” (priority 2016, dated 2023)", "key": {"[1]": {"tested_on": "Propionibacterium acnes and Staphylococcus epidermidis", "conditions": "aerobic and anaerobic organisms; cited from earlier work"}, "[2]": {"tested_on": "dermatophytes, yeasts, moulds and other fungi", "conditions": "cited from earlier work"}, "[3]": {"tested_on": "Gram-positive and Gram-negative bacteria", "conditions": "e.g., Escherichia coli, Proteus mirabilis, Pseudomonas aeruginosa, Staphylococcus and Streptococcus species; cited from earlier work"}, "C. albicans": {"tested_on": "C. albicans", "experiment": "Fungal contamination of incubated OD assay, with or without anti-fungal recovery media", "type": "cell-based", "conditions": "TSB containing 2.5 mg/L Amphotericin B"}, "[4]": {"tested_on": "Escherichia coli ATCC 25922", "experiment": "OD (600 nm) of incubated bacterial samples under simulated GI conditions (bile, mucin, pH, yeast), 4 hour incubation", "type": "cell-based", "conditions": "Yeast+Amphotericin B", "procedure": "(§1) Experiments were performed in order to simulate an ingestible device that contains sterile media that is inoculated with a sample of fluid from the GI tract and incubated in transit. […] The samples were also incubated under conditions of shear forces and temperature that simulate conditions of an ingestible device in transit within the GI tract.\n(§2) The assay utilized 50 μL, sample volumes, under shear (110 rpm) and at body temperature (37° C.) over a 4 hour incubation period to simulate transit of an ingestible device within the GI tract. […] Experiments were conducted in quintuplicate."}, "[5]": {"tested_on": "Staphylococcus epidermidis ATCC 12228", "experiment": "OD (600 nm) of incubated bacterial samples under simulated GI conditions (bile, mucin, pH, yeast), 4 hour incubation", "type": "cell-based", "conditions": "Yeast Amphotericin B", "procedure": "as §1, §2"}, "[6]": {"conditions": "numerous murine models; cited from earlier work"}, "human IL-6": {"target": "human IL-6 (Homo sapiens, UniProt P05231)", "sequence (P05231 30-212)": "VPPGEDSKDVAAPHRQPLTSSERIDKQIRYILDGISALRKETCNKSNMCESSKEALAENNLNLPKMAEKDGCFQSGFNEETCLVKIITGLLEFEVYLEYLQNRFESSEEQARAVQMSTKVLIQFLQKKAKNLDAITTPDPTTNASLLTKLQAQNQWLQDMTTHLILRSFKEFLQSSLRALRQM", "conditions": "cited from earlier work"}}, "data": [{"compound": "O=C(O)CCCCCCCC(=O)O", "note": "[Azelaic acid]", "values": [{"measurement": "antibacterial effects", "setting": "[1]", "value": "antibacterial effects"}]}, {"compound": "Cc1cc(C2CCCCC2)n(O)c(=O)c1", "note": "[Ciclopirox]", "values": [{"measurement": "antifungal activity", "setting": "[2]", "value": "fungicidal, fungistatic and sporicidal activity"}, {"measurement": "activity against bacteria", "setting": "[3]", "value": "effective"}]}, {"compound": "C[C@@H]1[C@H](O)[C@@H](C)/C=C/C=C/C=C/C=C/C=C/C=C/C=C/[C@H](O[C@@H]2O[C@H](C)[C@@H](O)[C@H](N)[C@@H]2O)C[C@@H]2O[C@](O)(C[C@@H](O)C[C@@H](O)[C@H](O)CC[C@@H](O)C[C@@H](O)CC(=O)O[C@H]1C)C[C@H](O)[C@H]2C(=O)O", "note": "[amphotericin B, Amphotericin B]", "values": [{"measurement": "Effect on background fungal growth (plate counts and optical density)", "setting": "C. albicans", "value": "reduced the background fungal growth"}, {"measurement": "OD (600 nm) Mean", "setting": "[4]; EC 10^3 initial concentration", "value": 0.0410}, {"measurement": "OD (600 nm) Mean", "setting": "[4]; EC 10^4 initial concentration", "value": 0.0432}, {"measurement": "OD (600 nm) Mean", "setting": "[4]; EC 10^5 initial concentration", "value": 0.0562}, {"measurement": "OD (600 nm) Mean", "setting": "[4]; EC 10^6 initial concentration", "value": 0.1038}, {"measurement": "OD (600 nm) Mean", "setting": "[4]; EC 10^7 initial concentration", "value": 0.1274}, {"measurement": "OD (600 nm) Mean", "setting": "[5]; SE 10^3 initial concentration", "value": 0.0425}, {"measurement": "OD (600 nm) Mean", "setting": "[5]; SE 10^4 initial concentration", "value": 0.0437}, {"measurement": "OD (600 nm) Mean", "setting": "[5]; SE 10^5 initial concentration", "value": 0.0454}, {"measurement": "OD (600 nm) Mean", "setting": "[5]; SE 10^6 initial concentration", "value": 0.0611}, {"measurement": "OD (600 nm) Mean", "setting": "[5]; SE 10^7 initial concentration", "value": 0.0971}]}, {"compound": "L-glutamic acid polymer with L-alanine, L-lysine and L-tyrosine, acetate (salt) [Glatiramer acetate]", "values": [{"measurement": "inflammation and pathological manifestations of IBD", "setting": "[6]", "value": "reduce inflammation and ameliorate the pathological manifestations"}]}, {"compound": "siltuximab: chimeric, human-murine, immunoglobulin (Ig) Gκ mAb that binds and neutralizes human IL-6", "values": [{"measurement": "binding and neutralization of human IL-6", "setting": "human IL-6", "value": "high affinity and specificity"}]}]}
